In US10040781B2, “Tank-binding kinase inhibitor compounds” (Gilead Sciences, Inc., priority 2014, dated 2018) one finds IC50 data, which are given here for 16 compounds.

In one experiment the target is TBK1 (Homo sapiens (Human), UniProt Q9UHD2). In words: TBK1 TR-FRET enzymatic assay.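 Further: phosphorylation of a biotinylated Ser/Thr peptide by purified full-length recombinant TBK1, read by TR-FRET after 240 min at 25 °C, IC50 is the geometric mean of at least four runs.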 Background: Time-resolved FRET reads energy transfer from a long-lived donor to a nearby acceptor.
Sequence of TBK1 (Q9UHD2 whole entry): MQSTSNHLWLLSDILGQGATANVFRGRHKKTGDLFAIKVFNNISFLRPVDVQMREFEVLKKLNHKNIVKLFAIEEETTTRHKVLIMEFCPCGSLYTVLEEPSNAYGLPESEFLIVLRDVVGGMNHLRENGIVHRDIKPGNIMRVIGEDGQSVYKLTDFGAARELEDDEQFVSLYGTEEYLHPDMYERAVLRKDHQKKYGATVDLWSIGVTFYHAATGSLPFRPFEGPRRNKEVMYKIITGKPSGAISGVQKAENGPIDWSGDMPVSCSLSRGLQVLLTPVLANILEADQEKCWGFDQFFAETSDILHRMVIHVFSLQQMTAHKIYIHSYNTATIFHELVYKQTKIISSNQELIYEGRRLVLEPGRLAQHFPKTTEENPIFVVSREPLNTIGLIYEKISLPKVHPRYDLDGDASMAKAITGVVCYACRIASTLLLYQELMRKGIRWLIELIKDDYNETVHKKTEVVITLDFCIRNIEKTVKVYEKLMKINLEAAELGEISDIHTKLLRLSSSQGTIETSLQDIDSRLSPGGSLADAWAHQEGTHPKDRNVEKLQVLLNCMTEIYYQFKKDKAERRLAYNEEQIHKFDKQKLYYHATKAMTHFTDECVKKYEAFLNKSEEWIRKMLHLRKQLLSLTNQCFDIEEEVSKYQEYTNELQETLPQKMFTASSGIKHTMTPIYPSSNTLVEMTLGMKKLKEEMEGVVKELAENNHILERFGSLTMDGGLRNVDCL
The target of a further experiment is hJAK2 (Homo sapiens (Human), UniProt O60674). The experiment in a line: hJAK2 LANCE TR-FRET enzymatic assay. The class given is biochemical. The following applies: read-out: JAK2 IC50.
Sequence of hJAK2 (O60674 whole entry): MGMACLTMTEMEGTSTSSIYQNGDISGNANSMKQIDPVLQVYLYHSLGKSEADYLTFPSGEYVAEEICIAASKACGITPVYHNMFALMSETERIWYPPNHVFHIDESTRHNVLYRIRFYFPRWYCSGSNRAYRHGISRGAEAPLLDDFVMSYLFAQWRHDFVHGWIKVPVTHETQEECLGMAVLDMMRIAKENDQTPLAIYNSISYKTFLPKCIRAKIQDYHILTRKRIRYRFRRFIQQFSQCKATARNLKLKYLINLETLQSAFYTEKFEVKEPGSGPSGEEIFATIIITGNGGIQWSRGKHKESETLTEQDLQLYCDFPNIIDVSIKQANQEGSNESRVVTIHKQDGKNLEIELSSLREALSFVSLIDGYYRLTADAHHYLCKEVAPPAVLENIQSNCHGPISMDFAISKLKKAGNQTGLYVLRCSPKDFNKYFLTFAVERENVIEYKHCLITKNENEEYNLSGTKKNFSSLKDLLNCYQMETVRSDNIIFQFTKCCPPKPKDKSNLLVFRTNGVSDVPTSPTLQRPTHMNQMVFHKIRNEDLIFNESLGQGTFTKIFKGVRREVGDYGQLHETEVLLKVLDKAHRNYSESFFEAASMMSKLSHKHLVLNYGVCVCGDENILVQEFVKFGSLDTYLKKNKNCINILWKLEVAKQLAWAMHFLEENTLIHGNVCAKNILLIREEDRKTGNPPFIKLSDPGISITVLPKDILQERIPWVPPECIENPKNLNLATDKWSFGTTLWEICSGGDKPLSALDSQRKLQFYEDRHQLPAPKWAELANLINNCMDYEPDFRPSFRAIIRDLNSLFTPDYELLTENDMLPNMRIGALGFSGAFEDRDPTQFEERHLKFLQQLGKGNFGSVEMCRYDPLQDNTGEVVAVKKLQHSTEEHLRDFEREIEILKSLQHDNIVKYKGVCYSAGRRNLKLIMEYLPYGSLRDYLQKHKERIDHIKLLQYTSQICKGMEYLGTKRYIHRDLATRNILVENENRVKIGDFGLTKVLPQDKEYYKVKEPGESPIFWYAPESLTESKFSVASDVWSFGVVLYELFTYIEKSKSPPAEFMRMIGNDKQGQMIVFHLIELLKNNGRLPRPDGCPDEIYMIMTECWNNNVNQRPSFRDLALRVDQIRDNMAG
A further experiment has as its target IKKε (Homo sapiens (Human), UniProt Q14164). In words: IKKε TR-FRET enzymatic assay. It counts as biochemical. The following applies: read-out: IKKe IC50.
Setting [1] is: TR-FRET, 2×Km ATP, geometric mean of minimum four determinations.

The structures appear in SMILES notation. Read-outs that look alike come from different tables or passages of the source.

Sequence of IKKε (Q14164 whole entry): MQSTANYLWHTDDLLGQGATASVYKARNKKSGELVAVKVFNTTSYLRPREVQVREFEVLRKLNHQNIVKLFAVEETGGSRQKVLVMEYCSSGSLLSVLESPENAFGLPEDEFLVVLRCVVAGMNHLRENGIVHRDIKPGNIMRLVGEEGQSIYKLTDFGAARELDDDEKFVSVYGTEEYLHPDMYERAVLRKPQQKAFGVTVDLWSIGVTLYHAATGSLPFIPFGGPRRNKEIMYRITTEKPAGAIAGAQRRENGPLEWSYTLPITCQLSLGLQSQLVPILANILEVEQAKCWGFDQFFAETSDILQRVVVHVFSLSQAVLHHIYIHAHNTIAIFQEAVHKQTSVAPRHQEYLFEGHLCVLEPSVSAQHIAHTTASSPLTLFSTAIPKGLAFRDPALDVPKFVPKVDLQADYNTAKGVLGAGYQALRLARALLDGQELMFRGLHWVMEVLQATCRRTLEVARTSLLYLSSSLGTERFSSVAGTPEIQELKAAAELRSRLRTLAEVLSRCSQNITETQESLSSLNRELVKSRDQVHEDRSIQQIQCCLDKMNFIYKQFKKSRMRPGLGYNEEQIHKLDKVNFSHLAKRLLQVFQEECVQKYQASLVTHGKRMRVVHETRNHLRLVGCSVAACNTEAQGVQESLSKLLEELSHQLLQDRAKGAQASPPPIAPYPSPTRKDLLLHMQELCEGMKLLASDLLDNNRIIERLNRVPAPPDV

By IC50 is commonly meant the concentration needed to halve the response being measured. Regarding `N#Cc1cc(-c2ncnc(Nc3ccc(N4CCN(C5COC5)CC4)cc3)n2)ccc1O[C@@H]1CCNC[C@H]1F` [Example 236, 2-(((3R,4R)-3-fluoropiperidin-4-yl)oxy)-5-(4-((4-(4-(oxetan-3-yl)piperazin-1-yl)phenyl)amino)-1,3,5-triazin-2-yl)benzonitrile], the IC50 against TBK1 turned out to be 58 nM; on hJAK2, 723 nM; at IKKε, 233 nM.

Turning to `CN1C(=O)CC[C@H]1C(=O)N1CC[C@H](Oc2ccc(-c3ncnc(Nc4ccc(N5CCN(C6COC6)CC5)cc4)n3)cc2C#N)[C@H](F)C1` [Example 407, 2-(((3R,4S)-3-fluoro-1-((S)-1-methyl-5-oxopyrrolidine-2-carbonyl)piperidin-4-yl)oxy)-5-(4-((4-(4-(oxetan-3-yl)piperazin-1-yl)phenyl)amino)-1,3,5-triazin-2-yl)benzonitrile], the IC50 against TBK1 was 165 nM; on hJAK2 it was no less than 1000 nM; at IKKε (setting [1]) it was 165 nM.

For the compound `N#Cc1cc(-c2ncnc(Nc3ccc(N4CCO[C@H](CO)C4)cc3)n2)ccc1O[C@H]1CCN(C(=O)CO)C[C@H]1F` [Example 232, 2-(((3R,4S)-3-fluoro-1-(2-hydroxyacetyl)piperidin-4-yl)oxy)-5-(4-((4-((S)-2-(hydroxymethyl)morpholino)phenyl)amino)-1,3,5-triazin-2-yl)benzonitrile], the IC50 at TBK1 worked out at 2 nM; on hJAK2, 128 nM; at IKKε it was 1 nM.

On to `CN1CC(Oc2ccc(-c3ncnc(Nc4ccc(N5CCN(C6COC6)CC5)cc4)n3)cc2C#N)CNC1=O` (stereo not drawn) [Example 421, 2-((1-methyl-2-oxohexahydropyrimidin-5-yl)oxy)-5-(4-((4-(4-(oxetan-3-yl)piperazin-1-yl)phenyl)amino)-1,3,5-triazin-2-yl)benzonitrile], for which the IC50 on TBK1 amounted to 80 nM; on hJAK2, 60 nM; on IKKε (setting [1]), 156 nM.

As for `N#Cc1cc(-c2ncnc(Nc3ccc(N4CCN(C5COC5)CC4)cc3)n2)ccc1N1CCC2(CCOCC2)C1` [Example 212, 5-(4-((4-(4-(oxetan-3-yl)piperazin-1-yl)phenyl)amino)-1,3,5-triazin-2-yl)-2-(8-oxa-2-azaspiro[4.5]decan-2-yl)benzonitrile], the IC50 was determined as 29 nM on TBK1, 137 nM on hJAK2 and 63 nM on IKKε.

As for `N#Cc1cc(-c2ncnc(Nc3ccc(N4CCN(C5COC5)CC4)cc3)n2)ccc1O[C@H]1CCN(C(=O)N2CC[C@@H](F)C2)C[C@H]1F` [Example 423, 2-(((3R,4S)-3-fluoro-1-((R)-3-fluoropyrrolidine-1-carbonyl)piperidin-4-yl)oxy)-5-(4-((4-(4-(oxetan-3-yl)piperazin-1-yl)phenyl)amino)-1,3,5-triazin-2-yl)benzonitrile], the concentration for half-maximal inhibition (IC50) came out at 16 nM at TBK1, 681 nM on hJAK2 and 55 nM at IKKε (setting [1]).

In the case of `C[C@H](O)C(=O)N1CC[C@H](Oc2ccc(-c3ncnc(Nc4ccc(C(=O)N5CCN(C)CC5)cc4)n3)cc2C#N)[C@H](F)C1` [Example 120, 2-(((3R,4S)-3-fluoro-1-((S)-2-hydroxypropanoyl)piperidin-4-yl)oxy)-5-(4-((4-(4-methylpiperazine-1-carbonyl)phenyl)amino)-1,3,5-triazin-2-yl)benzonitrile], the IC50 stood at 4 nM at TBK1, 674 nM on hJAK2 and 2 nM at IKKε.

Regarding `C[C@@H]1C[C@H](Oc2ccc(-c3ncnc(Nc4ccc(N5CCN(C6COC6)CC5)cc4)n3)cc2C#N)CCN1C(=O)CO` [Example 222, 2-(((2R,4R)-1-(2-hydroxyacetyl)-2-methylpiperidin-4-yl)oxy)-5-(4-((4-(4-(oxetan-3-yl)piperazin-1-yl)phenyl)amino)-1,3,5-triazin-2-yl)benzonitrile], the IC50 at TBK1 turned out to be 21 nM; at hJAK2 it was 182 nM; on IKKε it was 60 nM.

For the compound `N#Cc1cc(-c2ncnc(Nc3ccc(N4CCN(C5COC5)CC4)cc3)n2)ccc1OC1CC2CCC(C1)N2C(=O)CO` (stereo not drawn) [Example 173, 2-((8-(2-hydroxyacetyl)-8-azabicyclo[3.2.1]octan-3-yl)oxy)-5-(4-((4-(4-(oxetan-3-yl)piperazin-1-yl)phenyl)amino)-1,3,5-triazin-2-yl)benzonitrile], the IC50 against TBK1 (TBK1 IC50) was 92 nM; on hJAK2 it was 265 nM; at IKKε it was 218 nM.

In the case of `C[C@H](O)C(=O)N1CC[C@H](Oc2ccc(-c3ncnc(Nc4scnc4CO)n3)cc2C#N)[C@H](F)C1` [Example 572, 2-(((3R,4S)-3-fluoro-1-((S)-2-hydroxypropanoyl)piperidin-4-yl)oxy)-5-(4-((4-(hydroxymethyl)thiazol-5-yl)amino)-1,3,5-triazin-2-yl)benzonitrile], the figures for the IC50 against TBK1, at hJAK2 and at IKKε (setting [1]) were 36 nM, no less than 1000 nM and 21 nM, respectively.

As to `COCC(O)C(=O)N1CC[C@H](Oc2ccc(-c3ncnc(Nc4ccc(N5CCN(C6COC6)CC5)cc4)n3)cc2C#N)[C@H](F)C1` (stereo partly drawn) [Example 557, 2-(((3R,4S)-3-fluoro-1-(2-hydroxy-3-methoxypropanoyl)piperidin-4-yl)oxy)-5-(4-((4-(4-(oxetan-3-yl)piperazin-1-yl)phenyl)amino)-1,3,5-triazin-2-yl)benzonitrile], the IC50 on TBK1 worked out at 6 nM; on hJAK2, 917 nM; on IKKε (setting [1]), 4 nM.

Turning to `N#Cc1cc(-c2ncnc(Nc3ccc(N4CCN(C5COC5)CC4)nc3)n2)ccc1O[C@H]1CCN(C(=O)[C@@H](O)CO)C[C@H]1F` [Example 510, 2-(((3R,4S)-1-((S)-2,3-dihydroxypropanoyl)-3-fluoropiperidin-4-yl)oxy)-5-(4-((6-(4-(oxetan-3-yl)piperazin-1-yl)pyridin-3-yl)amino)-1,3,5-triazin-2-yl)benzonitrile], the IC50 is 4 nM against TBK1, no less than 1000 nM at hJAK2 and 2 nM on IKKε (setting [1]).

For the compound `CC(=O)N1CC[C@@H](Oc2ccc(-c3ncnc(Nc4ccc(N5CCN(C6COC6)CC5)cc4)n3)cc2C#N)C1` [Example 3, (R)-2-((1-acetylpyrrolidin-3-yl)oxy)-5-(4-((4-(4-(oxetan-3-yl)piperazin-1-yl)phenyl)amino)-1,3,5-triazin-2-yl)benzonitrile], the IC50 amounted to 20 nM on TBK1, 724 nM at hJAK2 and 99 nM on IKKε.

On to `N#Cc1cc(-c2ncnc(Nc3ccc(N4CCN(C5COC5)CC4)cc3)n2)ccc1OC1CCNCC1(F)F` (racemic) [Example 148, 2-((3,3-difluoropiperidin-4-yl)oxy)-5-(4-((4-(4-(oxetan-3-yl)piperazin-1-yl)phenyl)amino)-1,3,5-triazin-2-yl)benzonitrile], for which the values for the half-inhibitory concentration (IC50) against TBK1, at hJAK2 and at IKKε were 3 nM, 242 nM and 23 nM, respectively.

Take `N#Cc1cc(-c2ncnc(Nc3ccc(N4CCS(=O)(=O)CC4)cc3)n2)ccc1OC1CCOCC1` [Example 1, 5-(4-((4-(1,1-dioxidothiomorpholino)phenyl)amino)-1,3,5-triazin-2-yl)-2-((tetrahydro-2H-pyran-4-yl)oxy)benzonitrile]: the IC50 came out at 2 nM at TBK1, 360 nM at hJAK2 and 6 nM at IKKε.

On to `N#Cc1cc(-c2ncnc(Nc3ccc(C4CCN(CC(F)F)CC4)cc3)n2)ccc1OC1CCOCC1` [Example 65, 5-(4-((4-(1-(2,2-difluoroethyl)piperidin-4-yl)phenyl)amino)-1,3,5-triazin-2-yl)-2-((tetrahydro-2H-pyran-4-yl)oxy)benzonitrile], for which the IC50 was 4 nM on TBK1, greater than 1000 nM on hJAK2 and 11 nM at IKKε.
